Experimental data from patent US10794897B2, “System and methods for predicting drug-induced inotropic and pro-arrhythmia risk” (AnaBios Corporation, priority 2017, dated 2020).
Where two headings read alike, the source gives them in different places. Each block holds one compound with its values, some of them ahead of it.

Experiments:
[1] = system: human cardiomyocyte preparation; details: for concentration from which ACs were induced: human
[2] = system: ex vivo human ventricular trabeculae preparation; test: ex vivo human ventricular trabeculae force of contraction
[3] = system: human cardiomyocyte preparation; test: human cardiomyocyte contractility transients (system 20 validation with reference drugs); details: human cardiomyocytes
[4] = system: ex vivo human ventricular trabeculae preparation

- sarcomere shortening [1]: inhibited
- concentration from which ACs were induced [1]: 10 -fold the fETPC
Structure (SMILES): CC[C@H]1OC(=O)[C@H](C)[C@@H](O[C@H]2C[C@@](C)(OC)[C@@H](O)[C@H](C)O2)[C@H](C)[C@@H](O[C@@H]2O[C@H](C)C[C@H](N(C)C)[C@H]2O)[C@](C)(OC)C[C@@H](C)C(=O)[C@H](C)[C@@H](O)[C@]1(C)O [clarithromycin]

Structure (SMILES): COc1ccc(CCN(C)CCCC(C#N)(c2ccc(OC)c(OC)c2)C(C)C)cc1OC (stereo not shown) [verapamil]
- IC50 ([2]; Homo sapiens, read-out: IC50 for decrease of MAC): 1460 nM
- AC incidence ([3]; up to 222-fold the fETPC): neither AC or CE incidence
- CE incidence ([3]; up to 222-fold the fETPC): neither AC or CE incidence
- TR90 ([3]; up to 222-fold the fETPC): no change

- sarcomere shortening [1]: inhibited
Structure (SMILES): Cc1cccc(C)c1OCC(C)N (stereo not shown) [mexiletine]
- AC incidence [1]: induced no ACs

- TR90 [4]: decrease
- TR90 [1]: decreased
Structure (SMILES): CC(C)NCC(O)c1ccc(O)c(O)c1 (stereo not shown) [isoproterenol]
- AC incidence [4]: did not induce any ACs
- increase of MAC ([2]; human ventricular trabeculae, at 0.03 μM): 315%
- FSF ([3]; positive inotropes): increased
- maximum contraction velocity ([3]; positive inotropes): increased
- maximum contraction velocity time ([3]; positive inotropes): increased
- maximum relaxation velocity ([3]; positive inotropes): increased
- maximum relaxation velocity time ([3]; positive inotropes): no effects
- peak height ([3]; positive inotropes): increased
- time to 10% peak ([3]; positive inotropes): decreased
- time to 50% peak ([3]; positive inotropes): decreased
- time to peak ([3]; positive inotropes): no effects
- AC incidence [1]: induced no AC
- CE incidence [1]: no CE incidence

- TR90 (time to 90% relaxation) [1]: prolongation
Structure (SMILES): C=C[C@H]1C[N@@]2CC[C@H]1C[C@@H]2[C@@H](O)c1ccnc2ccc(OC)cc12 [quinidine]
- AC (after-contraction) incidence [1]: concentration-dependent increases
- CE (contractility escape) incidence [1]: concentration-dependent increases

- sarcomere shortening [1]: inhibited
Structure (SMILES): COc1ccccc1OCC(O)CN1CCN(CC(=O)Nc2c(C)cccc2C)CC1 (stereo not shown) [ranolazine]
- AC incidence [1]: induced no ACs

- sarcomere shortening [1]: inhibited
Structure (SMILES): O=c1[nH]c2ccccc2n1CCCN1CCC(n2c(=O)[nH]c3cc(Cl)ccc32)CC1 [domperidone]
- AC (after-contraction) incidence [1]: seen starting at the fETPC

- MAC (maximum amplitude of force of contraction) ([2]; human ventricular trabeculae): no effects
- TR90 ([2]; human ventricular trabeculae): concentration-dependent increase
- sarcomere shortening [1]: no effects
- concentration from which ACs were induced [1]: 10 -fold the fETPC
Structure (SMILES): CN(CCOc1ccc(NS(C)(=O)=O)cc1)CCc1ccc(NS(C)(=O)=O)cc1 [dofetilide]
- AC incidence ([2]; human ventricular trabeculae, starting at the fETPC): observed starting at the fETPC

- TR90 [4]: concentration-dependent increase
- sarcomere shortening [1]: no effects
- concentration from which ACs were induced [1]: 10 -fold the fETPC
Structure (SMILES): CC(C)NCC(O)c1ccc(NS(C)(=O)=O)cc1 (racemic) [sotalol, d,l-sotalol]

- sarcomere shortening [1]: inhibited
Structure (SMILES): COc1cc(N)c(Cl)cc1C(=O)NC1CCN(CCCOc2ccc(F)cc2)CC1OC (stereo not shown) [cisapride]
- AC (after-contraction) incidence [1]: seen starting at the fETPC

- TR90 ([3]; positive inotropes): no effect
Structure (SMILES): C[C@@H]1CC(=O)NN=C1c1ccc(NN=C(C#N)C#N)cc1 [levosimendan]
- AC incidence ([3]; at 10-fold the fETPC): levosimendan did
- CE incidence ([3]; positive inotropes): no CE incidence
- FSF ([3]; positive inotropes): increased
- maximum contraction velocity ([3]; positive inotropes): increased
- maximum contraction velocity time ([3]; positive inotropes): no effect
- maximum relaxation velocity ([3]; positive inotropes): increased
- maximum relaxation velocity time ([3]; positive inotropes): no effects
- peak height ([3]; positive inotropes): increased
- time to 10% peak ([3]; positive inotropes): no effect
- time to 50% peak ([3]; positive inotropes): no effect
- time to peak ([3]; positive inotropes): no effects
